Measurements: ChEMBL document CHEMBL2380271, “Synthesis and biological evaluation of a class of quinolone triazoles as potential antimicrobial agents and their interactions with calf thymus DNA” (2013)
≈ marks a conversion by molar mass, not a printed value.

What was measured:
[1] = tested on: Shigella dysenteriae; experiment: Antibacterial activity against Shigella dysenteriae by NCCLS method; type: functional
[2] = tested on: Aspergillus flavus; experiment: Antifungal activity against Aspergillus flavus by NCCLS method; type: functional
[3] = tested on: Micrococcus luteus; experiment: Antibacterial activity against Micrococcus luteus ATCC 4698 by NCCLS method; type: functional
[4] = tested on: Escherichia coli; experiment: Antibacterial activity against Escherichia coli DH52 by NCCLS method; type: functional
[5] = tested on: Staphylococcus aureus; experiment: Antibacterial activity against methicillin-resistant Staphylococcus aureus N315 by NCCLS method; type: functional
[6] = tested on: Aspergillus flavus; experiment: Ratio of Fluconazole MIC to compound MIC for Aspergillus flavus; type: functional
[7] = tested on: Pseudomonas aeruginosa; experiment: Antibacterial activity against Pseudomonas aeruginosa by NCCLS method; type: functional
[8] = tested on: Saccharomyces cerevisiae; experiment: Antifungal activity against Saccharomyces cerevisiae by NCCLS method; type: functional
[9] = tested on: Staphylococcus aureus; experiment: Antibacterial activity against Staphylococcus aureus ATCC 25923 by NCCLS method; type: functional
[10] = tested on: Candida albicans; experiment: Antifungal activity against Candida albicans by NCCLS method; type: functional
[11] = tested on: Cyberlindnera jadinii; experiment: Antifungal activity against Candida utilis by NCCLS method; type: functional; conditions: Williopsis jadinii
[12] = tested on: Salmonella typhi; experiment: Antibacterial activity against Eberthella typhosa by NCCLS method; type: functional, Salmonella enterica subsp. enterica serovar Typhi; conditions: Salmonella enterica
[13] = tested on: Staphylococcus aureus; experiment: Ratio of norfloxacin MIC to compound MIC for methicillin-resistant Staphylococcus aureus N315; type: functional
[14] = tested on: Staphylococcus aureus; experiment: Ratio of chloromycin MIC to compound MIC for methicillin-resistant Staphylococcus aureus N315; type: functional

For CCOC(=O)c1cn(CC2CO2)c2c(F)cc(F)cc2c1=O (racemic), the MIC [1] was > 512 µg/mL, the MIC [2] was 1 µg/mL (≈ 3.23 µM) and the MIC [3] was 2 µg/mL (≈ 6.47 µM). The MIC [4] was 128 µg/mL (≈ 414 µM), the MIC [5] was 8 µg/mL (≈ 25.9 µM) and the Ratio [6] was 256. The MIC [7] was 64 µg/mL (≈ 207 µM), the MIC [8] was 64 µg/mL (≈ 207 µM) and the MIC [9] was 16 µg/mL (≈ 51.7 µM). The MIC [10] was 4 µg/mL (≈ 12.9 µM), the MIC [11] was > 512 µg/mL and the MIC [12] was 2 µg/mL (≈ 6.47 µM).

CCOC(=O)c1cn(CC2CO2)c2ccc(C)cc2c1=O (racemic) was tested, and the MIC [1] was 128 µg/mL (≈ 446 µM), the MIC [2] was 16 µg/mL (≈ 55.7 µM) and the MIC [3] was 32 µg/mL (≈ 111 µM). The MIC [4] was 128 µg/mL (≈ 446 µM), the MIC [5] was 16 µg/mL (≈ 55.7 µM) and the MIC [7] was 32 µg/mL (≈ 111 µM). It also gave an MIC [8] of 64 µg/mL (≈ 223 µM), an MIC [9] of 256 µg/mL (≈ 891 µM) and an MIC [10] of 2 µg/mL (≈ 6.96 µM). The MIC [11] was 256 µg/mL (≈ 891 µM) and the MIC [12] was 2 µg/mL (≈ 6.96 µM).

With CCOC(=O)c1cn(CC2CO2)c2ccc(F)cc2c1=O (racemic) the MIC [1] was 64 µg/mL (≈ 220 µM), the MIC [2] was 1 µg/mL (≈ 3.43 µM) and the MIC [3] was 512 µg/mL (≈ 1760 µM). The MIC [4] was 64 µg/mL (≈ 220 µM), the MIC [5] was 4 µg/mL (≈ 13.7 µM) and the Ratio [6] was 256. For the same compound, the MIC [7] was 128 µg/mL (≈ 439 µM), the MIC [8] was 2 µg/mL (≈ 6.87 µM) and the MIC [9] was 32 µg/mL (≈ 110 µM). The MIC [10] was 16 µg/mL (≈ 54.9 µM), the MIC [11] was 256 µg/mL (≈ 879 µM) and the MIC [12] was 8 µg/mL (≈ 27.5 µM).

CCOC(=O)c1cn(CC2CO2)c2cc(C(F)(F)F)ccc2c1=O (racemic) gave an MIC [1] of 256 µg/mL (≈ 750 µM), an MIC [2] of 0.5 µg/mL (≈ 1.47 µM) and an MIC [3] of 128 µg/mL (≈ 375 µM). It also gave a Ratio [13] of 16, an MIC [4] of 64 µg/mL (≈ 188 µM) and an MIC [5] of 0.5 µg/mL (≈ 1.47 µM). For the same compound, the Ratio [6] was 256, the MIC [7] was 64 µg/mL (≈ 188 µM) and the MIC [8] was 8 µg/mL (≈ 23.4 µM). For the same compound, the MIC [9] was 256 µg/mL (≈ 750 µM), the Ratio [14] was 32 and the MIC [10] was 4 µg/mL (≈ 11.7 µM). The MIC [11] was > 512 µg/mL and the MIC [12] was 2 µg/mL (≈ 5.86 µM).

In the case of CCOC(=O)c1cn(CC2CO2)c2c(Cl)cc(Cl)cc2c1=O (racemic), the MIC [1] is reported as > 512 µg/mL, the MIC [2] is reported as 0.5 µg/mL (≈ 1.46 µM) and the MIC [3] is reported as > 512 µg/mL. It also gave an MIC [4] of 32 µg/mL (≈ 93.5 µM), an MIC [5] of 2 µg/mL (≈ 5.84 µM) and a Ratio [6] of 256. It also gave an MIC [7] of 0.5 µg/mL (≈ 1.46 µM), an MIC [8] of 8 µg/mL (≈ 23.4 µM) and an MIC [9] of 1 µg/mL (≈ 2.92 µM). For the same compound, the MIC [10] was 2 µg/mL (≈ 5.84 µM), the MIC [11] was > 512 µg/mL and the MIC [12] was 2 µg/mL (≈ 5.84 µM).

With CCOC(=O)c1cn(CC2CO2)c2c(F)cccc2c1=O (racemic) the MIC [1] was 512 µg/mL (≈ 1760 µM), the MIC [2] was 0.5 µg/mL (≈ 1.72 µM) and the MIC [3] was > 512 µg/mL. For the same compound, the MIC [4] was 16 µg/mL (≈ 54.9 µM), the MIC [5] was 2 µg/mL (≈ 6.87 µM) and the Ratio [6] was 256. The MIC [7] was 256 µg/mL (≈ 879 µM), the MIC [8] was 4 µg/mL (≈ 13.7 µM) and the MIC [9] was 2 µg/mL (≈ 6.87 µM). The MIC [10] was 1 µg/mL (≈ 3.43 µM), the MIC [11] was > 512 µg/mL and the MIC [12] was 2 µg/mL (≈ 6.87 µM).

In the case of CCOC(=O)c1cn(CC(O)Cn2cncn2)c2c(F)cc(F)cc2c1=O (racemic), the MIC [1] is reported as 32 µg/mL (≈ 84.6 µM), the MIC [2] is reported as 64 µg/mL (≈ 169 µM) and the MIC [3] is reported as 2 µg/mL (≈ 5.29 µM). For the same compound, the MIC [4] was 8 µg/mL (≈ 21.1 µM), the MIC [5] was 32 µg/mL (≈ 84.6 µM) and the MIC [7] was 4 µg/mL (≈ 10.6 µM). The MIC [8] was 512 µg/mL (≈ 1350 µM), the MIC [9] was 1 µg/mL (≈ 2.64 µM) and the MIC [10] was 64 µg/mL (≈ 169 µM). For the same compound, the MIC [11] was > 512 µg/mL and the MIC [12] was 0.5 µg/mL (≈ 1.32 µM).

Compound CCOC(=O)c1cn(CC(O)Cn2cncn2)c2ccc(C)cc2c1=O (racemic) has an MIC [1] of 4 µg/mL (≈ 11.2 µM), an MIC [2] of 256 µg/mL (≈ 718 µM) and an MIC [3] of 16 µg/mL (≈ 44.9 µM). It also gave an MIC [4] of 4 µg/mL (≈ 11.2 µM), an MIC [5] of 2 µg/mL (≈ 5.61 µM) and an MIC [7] of 2 µg/mL (≈ 5.61 µM). The MIC [8] was 64 µg/mL (≈ 180 µM), the MIC [9] was 64 µg/mL (≈ 180 µM) and the MIC [10] was 128 µg/mL (≈ 359 µM). For the same compound, the MIC [11] was > 512 µg/mL and the MIC [12] was 4 µg/mL (≈ 11.2 µM).

In the case of CCOC(=O)c1cn(CC(O)Cn2cncn2)c2ccc(F)cc2c1=O (racemic), the MIC [1] is reported as 64 µg/mL (≈ 178 µM), the MIC [2] is reported as 512 µg/mL (≈ 1420 µM) and the MIC [3] is reported as 8 µg/mL (≈ 22.2 µM). For the same compound, the MIC [4] was 16 µg/mL (≈ 44.4 µM), the MIC [5] was 8 µg/mL (≈ 22.2 µM) and the MIC [7] was 16 µg/mL (≈ 44.4 µM). For the same compound, the MIC [8] was 512 µg/mL (≈ 1420 µM), the MIC [9] was 32 µg/mL (≈ 88.8 µM) and the MIC [10] was 32 µg/mL (≈ 88.8 µM). It also gave an MIC [11] of 64 µg/mL (≈ 178 µM) and an MIC [12] of 1 µg/mL (≈ 2.78 µM).

With O=C(N[C@H](CO)[C@H](O)c1ccc([N+](=O)[O-])cc1)C(Cl)Cl [CHLORAMPHENICOL] the MIC [1] was 32 µg/mL (≈ 99 µM), the MIC [2] was > 512 µg/mL and the MIC [3] was 8 µg/mL (≈ 24.8 µM). For the same compound, the MIC [4] was 32 µg/mL (≈ 99 µM), the MIC [5] was 16 µg/mL (≈ 49.5 µM) and the MIC [7] was 32 µg/mL (≈ 99 µM). For the same compound, the MIC [8] was > 512 µg/mL, the MIC [9] was 16 µg/mL (≈ 49.5 µM) and the MIC [10] was > 512 µg/mL. For the same compound, the MIC [11] was > 512 µg/mL and the MIC [12] was 32 µg/mL (≈ 99 µM).

In the case of OC(Cn1cncn1)(Cn1cncn1)c1ccc(F)cc1F [FLUCONAZOLE], the MIC [1] is reported as > 512 µg/mL, the MIC [2] is reported as 256 µg/mL (≈ 836 µM) and the MIC [3] is reported as > 512 µg/mL. For the same compound, the MIC [4] was > 512 µg/mL, the MIC [5] was > 512 µg/mL and the MIC [7] was > 512 µg/mL. The MIC [8] was 16 µg/mL (≈ 52.2 µM), the MIC [9] was > 512 µg/mL and the MIC [10] was 1 µg/mL (≈ 3.27 µM). For the same compound, the MIC [11] was 8 µg/mL (≈ 26.1 µM) and the MIC [12] was > 512 µg/mL.

With CCn1cc(C(=O)O)c(=O)c2cc(F)c(N3CCNCC3)cc21 [NORFLOXACIN] the MIC [1] was 4 µg/mL (≈ 12.5 µM), the MIC [2] was > 512 µg/mL and the MIC [3] was 2 µg/mL (≈ 6.26 µM). It also gave an MIC [4] of 16 µg/mL (≈ 50.1 µM), an MIC [5] of 8 µg/mL (≈ 25.1 µM) and an MIC [7] of 1 µg/mL (≈ 3.13 µM). The MIC [8] was > 512 µg/mL, the MIC [9] was 0.5 µg/mL (≈ 1.57 µM) and the MIC [10] was > 512 µg/mL. For the same compound, the MIC [11] was > 512 µg/mL and the MIC [12] was 4 µg/mL (≈ 12.5 µM).
